# Test results as given in publication PMC11238337, “Crafting Stable Antibiotic Nanoparticles via Complex Coacervation of Colistin with Block Copolymers” (Biomacromolecules, 2024).
# How the values were obtained:
# [1] = molecular target: T1, subtilisin (Bacillus licheniformis, UniProt P00780); test: Enzymatic breakdown susceptibility, SAXS read-out; format: in vitro ADME; settings: 24 h at 37 °C
# T1 construct: purchased Sigma Aldrich
# Description: (§3) The enzymatic breakdown susceptibility was analyzed by adding proteinase K (3.4.21.64; Sigma Aldrich), subtilisin (3.4.21.62; Sigma Aldrich), and trypsin (3.4.21.4; Sigma Aldrich) to either colistin (at 3.4 mg/mL) or C3Ms at f+ = 0.50 (total concentration 5.0 mg/mL) at their suppliers’ recommended concentration/ratio for optimized breakdown (molar ratios of enzyme:colistin ≈ 1:130 for proteinase K, ≈ 1:70 for subtilisin and ≈ 1:180 for trypsin). We assessed the difference in susceptibility between noncomplexed colistin and C3Ms. Colistin solution was incubated with enzymes for 24 h at 37 °C, after which polymer solution (kept 24 h at 37 °C) was added while in the other case, premade C3Ms were incubated with enzymes for 24 h at 37 °C. These samples were analyzed using SAXS and modeled, including enzyme scattering (using the Debye form factor since the scattering was too small to use a prolate/oblate ellipsoid form factor, eq 8) to monitor the molecular weight of the complex coacervates after exposure to enzyme degradation.
# [2] = test system: Mesenchymal stem cells (MSC); test: Toxicity assay (LDH activity, caspase-3 level in medium); format: cell-based, human; settings: 24 h, 0.7 mg/mL colistin
# Description: Human embryonic kidney (HEK 293 cells) (ATCC, CRL-1573) were cultured in Dulbecco’s modified Eagle medium (DMEM), low glucose (Sigma Aldrich) supplemented with 100 U/mL penicillin and 100 μg/mL streptomycin (15140-122; Gibco, Waltham), 1% GlutaMAX (35050; Gibco), and 20% fetal bovine serum (F9665; Sigma Aldrich). Mesenchymal stem cells (MSC, PT-2501; Lonza) were cultured in Mesenchymal Stem Cell Basel Medium (PT-3238; Lonza)) supplemented with MSCGM SingleQuots (PT-4105; Lonza). Human gingival keratinocytes (HGK) (PCS-200-014; ATCC) were cultured in Dermal Cell Basal Medium (PCS-200-030; ATCC) supplemented with Keratinocytes Growth Kit (PCS-200-040; ATCC). Human umbilical cord endothelial cells (HUVEC, 200p-05n; Cell Applications) were cultured in Endothelial Cell Growth Medium (211-500; Cell Applications). The cell types were seeded in 12-well culture-treated plates at a density of 4 × 10^4 cells/cm^2. Upon confluency (set at time point 0), the cells were exposed to cell-specific growth medium containing formulations with a concentration of 1.0 mg/mL total concentration (0.7 mg/mL colistin) of f+ = 0.50 C3Ms or equivalent concentrations of colistin, and polymer as a control. […] LDH activity in the cell culture media was evaluated using a cytotoxicity detection kit (11644793001; Roche). […]
# [3] = test system: Escherichia coli (DSM613); test: Disk diffusion assay (DDA); format: cell-based; settings: 3.0 μg colistin per disk, 24 h at 37 °C, triplicate, averaged
# Description: (§1) In the DDA, the susceptibility of Escherichia coli (DSM613), Serratia indica (NCIMB 8869), Pseudomonas fluorescens (DSM20030), A. vinelandii (DSM2290), and Bacillus subtilis (DSM10) was tested. Sterile filter disks (VWR) were impregnated (using an automatic pipette) with 3.0 μg of colistin from either colistin sulfate or colistin-C3Ms (at f+ = 0.50) in a concentration above the CMC (at 1.0 mg/mL) and dried under sterile air. Bacterial plates were prepared by freshly pouring bacterial medium until it set. Second, a layer of LB medium, that was premixed with 10 μL of bacteria from overnight cultures, was added. Then, the disks were added, and the plates were incubated for 24 h at 37 °C. The sizes of the inhibition zones were measured and averaged. Experiments were performed in triplicate. With the agar broth dilution testing, it was possible to determine the MIC50 values. LB liquid media in test tubes containing equal amounts of E. coli culture (10 μL of bacteria from overnight cultures to 5 mL of media) was mixed with either colistin or colistin-C3Ms with equal colistin for a concentration between 0.0 and 50 μg/mL. The test tubes were incubated for 24 h at 37 °C and their turbidity was measured with a McFarland turbidimeter. The agar broth dilution experiments were done in duplicate. To determine the MIC50 values, curves were averaged and then fitted with a sigmoid function.
# [4] = test system: A. vinelandii (DSM2290); test: Disk diffusion assay (DDA); format: cell-based; settings: 3.0 μg colistin per disk, 24 h at 37 °C
# Description: as §1
# [5] = test system: Pseudomonas fluorescens (DSM20030); test: Disk diffusion assay (DDA); format: cell-based; settings: 3.0 μg colistin per disk, 24 h at 37 °C
# Description: as §1
# [6] = test system: Serratia indica (NCIMB 8869); test: Disk diffusion assay (DDA); format: cell-based; settings: 3.0 μg colistin per disk, 24 h at 37 °C
# Description: as §1
# [7] = test system: trypsin; test: Enzymatic breakdown susceptibility, SAXS read-out; settings: 24 h at 37 °C, enzyme:colistin ≈ 1:180
# Description: as §3
# [8] = molecular target: T2, proteinase K (Parengyodontium album, UniProt P06873); test: Enzymatic breakdown susceptibility, SAXS read-out; format: in vitro ADME; settings: 24 h at 37 °C
# T2 construct: purchased Sigma Aldrich
# T2 sequence (P06873 106-384): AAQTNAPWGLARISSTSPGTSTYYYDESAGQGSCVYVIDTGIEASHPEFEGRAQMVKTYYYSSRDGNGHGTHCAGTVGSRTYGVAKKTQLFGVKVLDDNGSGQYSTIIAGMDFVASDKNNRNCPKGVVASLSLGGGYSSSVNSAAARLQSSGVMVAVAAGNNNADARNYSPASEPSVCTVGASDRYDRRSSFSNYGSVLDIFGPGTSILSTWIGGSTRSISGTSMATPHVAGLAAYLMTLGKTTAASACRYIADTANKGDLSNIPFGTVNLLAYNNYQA
# Description: as §3
# [9] = test system: E. coli; test: Agar broth dilution testing for MIC50 (turbidity); format: cell-based, Escherichia coli; settings: LB liquid media, 0.0-50 μg/mL colistin, 24 h at 37 °C, McFarland turbidity, duplicate, sigmoid fit; all concentrations below the CMC
# Description: as §1
# [10] = test system: Human embryonic kidney (HEK 293 cells); test: Toxicity assay (LDH activity, caspase-3 level in medium); format: cell-based
# Description: (§2) Human embryonic kidney (HEK 293 cells) (ATCC, CRL-1573) were cultured in Dulbecco’s modified Eagle medium (DMEM), low glucose (Sigma Aldrich) supplemented with 100 U/mL penicillin and 100 μg/mL streptomycin (15140-122; Gibco, Waltham), 1% GlutaMAX (35050; Gibco), and 20% fetal bovine serum (F9665; Sigma Aldrich). Mesenchymal stem cells (MSC, PT-2501; Lonza) were cultured in Mesenchymal Stem Cell Basel Medium (PT-3238; Lonza)) supplemented with MSCGM SingleQuots (PT-4105; Lonza). Human gingival keratinocytes (HGK) (PCS-200-014; ATCC) were cultured in Dermal Cell Basal Medium (PCS-200-030; ATCC) supplemented with Keratinocytes Growth Kit (PCS-200-040; ATCC). Human umbilical cord endothelial cells (HUVEC, 200p-05n; Cell Applications) were cultured in Endothelial Cell Growth Medium (211-500; Cell Applications). The cell types were seeded in 12-well culture-treated plates at a density of 4 × 10^4 cells/cm^2. Upon confluency (set at time point 0), the cells were exposed to cell-specific growth medium containing formulations with a concentration of 1.0 mg/mL total concentration (0.7 mg/mL colistin) of f+ = 0.50 C3Ms or equivalent concentrations of colistin, and polymer as a control. The medium was changed for both control cells and stimulated cells every two days, 24 h before the harvest of the medium to ensure the same window of accumulated cell-secreted factors in the media. Cytotoxicity assays on lactate dehydrogenase (LDH) activity and caspase-3 level were performed at 24, 48, and 72 h and executed in triplicate. LDH activity in the cell culture media was evaluated using a cytotoxicity detection kit (11644793001; Roche). In short, 50 μL of the collected supernatant was mixed with 50 μL of the reaction mixture and incubated in a dark room at room temperature for 30 min.
# [11] = test system: Human gingival keratinocytes (HGK); test: as above; format: cell-based; settings: 24 h; 0.7 mg/mL colistin
# Description: as §2
# [12] = test system: Bacillus subtilis (DSM10); test: Disk diffusion assay (DDA), control strain; format: cell-based; settings: 3.0 μg colistin per disk, 24 h at 37 °C; Gram-positive negative control
# Description: as §1
# T1 sequence (P00780 106-379): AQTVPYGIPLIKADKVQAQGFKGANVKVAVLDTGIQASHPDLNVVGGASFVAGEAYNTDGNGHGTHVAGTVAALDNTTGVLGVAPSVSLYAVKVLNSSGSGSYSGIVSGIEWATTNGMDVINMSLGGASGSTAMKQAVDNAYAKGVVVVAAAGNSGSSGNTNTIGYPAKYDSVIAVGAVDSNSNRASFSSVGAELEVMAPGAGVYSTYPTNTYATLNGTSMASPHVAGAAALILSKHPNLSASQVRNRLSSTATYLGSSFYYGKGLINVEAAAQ
substance,measurement,setting,value
colistin sulfate,Mw of complex coacervates after subtilisin degradation,"[1]; enzyme:colistin ≈ 1:70, colistin 3.4 mg/mL digested then complexed with polymer (without C3M protection) or premade C3Ms 5.0 mg/mL digested (with C3M protection), SAXS fit",0.042 MDa
same,factor of reduction of Mw of complex coacervates by subtilisin,[1]; versus untreated C3Ms,≈ 50
same,caspase-3 level versus control,[2],no significant difference
same,"LDH activity, fold change of control",[2]; mean of 3,2 fold
same,size of inhibition zone (ΔR),[3],1.9 ± 0.1 mm
same,"inhibition zone, result in words",[4],immeasurable small inhibition zones
same,"inhibition zone, result in words",[5],not visibly affected
same,"inhibition zone, result in words",[6],grew back over the inhibition zones
same,"breakdown by trypsin, result in words",[7],ineffective in breaking down colistin
same,Mw of complex coacervates after proteinase K degradation,"[8]; enzyme:colistin ≈ 1:130, colistin 3.4 mg/mL digested then complexed with polymer (without C3M protection) or premade C3Ms 5.0 mg/mL digested (with C3M protection), SAXS fit",0.13 MDa
same,factor of reduction of average Mw of complex coacervates by proteinase K,[8]; versus untreated C3Ms,≈ 20
same,MIC50,[9],1.5 ± 0.1 µg/mL
same,LDH activity versus control,"[10]; 24, 48, 72 h, 0.7 mg/mL colistin",no significant differences
same,"caspase-3 level, fold change of control","[10]; day one (24 h), 0.7 mg/mL colistin (1.0 mg/mL total for C3Ms), mean of 3",up to 3 fold
same,"LDH (necrosis), result in words",[11],caused necrosis (LDH)
same,"caspase-3 (apoptosis), result in words",[11],apoptosis (caspase-3)
same,"inhibition zone, result in words",[12],no inhibition zones could be observed
